Test results reported in patent US8871781B2, “Methods and compositions for treating a subject for a lymphatic malformation” (The Board of Trustees of the Leland Stanford Junior …, priority 2011, dated 2014).
Entries after “also recorded” stand apart in the source; their conditions may differ.

Key:
Format in all cases: in vivo, human
[1] = system: lymphatic malformations; assay: Pilot study: sildenafil for 12 weeks in two children with disabling LMs
Protocol: Based on the observation of marked regression in a lymphatic malformation after starting sildenafil, a pilot study to treat otherwise healthy children with LMs with sildenafil was approved by the Stanford University Human Research Protection Program (IRB). After informed consent was obtained, sildenafil (goal dose 1.0 mg/kg/dose TID) was administered to two children with disabling LMs for 12 weeks, and results are summarized in Table 1.

[2] = system: lymphatic malformation; assay: Clinical trial: MRI before and after 20 weeks of sildenafil; conditions: for volume of the lymphatic malformation after 20 weeks: MRI; for decrease of the volume of the lymphatic malformation: over 20 weeks
Protocol: An additional 7 subjects were enrolled into a clinical trial. Sildenafil was administered substantially as described above in Examples 1-2. […] Three subjects completed the 20 week trial and had the follow up MRI completed; the remaining four subjects are still undergoing the trial.

[3] = system: lymphatic malformation; assay: Index patient: infant with microcystic venolymphatic malformation given sildenafil for pulmonary hypertension
Description: FIG. 1, Panels A-B depict pre- and post-treatment magnetic resonance imaging (MRI) contrast-enhanced images of a subject with a lymphatic malformation treated in accord with the subject methods. […] Contrast highlights the heart with right ventricular enlargement (dashed arrow), aorta, and pulmonary vessels.
An infant was born with massive enlargement of their right chest and arm. […], the infant developed tachypnea due to congestive heart failure and pulmonary edema. […] At 9 months, cardiac catheterization confirmed the diagnosis of idiopathic pulmonary hypertension and sildenafil was started (initially 0.5 mg/kg/dose TID and titrated to 0.75 mg/kg/dose TID). […] The post-MRI course was complicated by worsening cardiopulmonary interactions, respiratory failure and subsequent cardiac failure leading to their death.

[4] = Subject 1, LM of left orbit, upper and lower eyelids
[5] = Subject 2, LM of right axilla, after 12 weeks of treatment (FIG. 3, Panel B)
[6] = Subject 2, LM of right axilla, chest
[7] = Subject 2, LM of right upper back

CCCc1nn(C)c2c(=O)[nH]c(-c3cc(S(=O)(=O)N4CCN(C)CC4)ccc3OCC)nc12 [sildenafil]
change of the lesion after stopping the medication ([1]; Subject 1): enlargement of the lesion
Adverse effects ([1]; Subject 1, 12 weeks of therapy): Loose yellow
clinical change of eyelid LM ([1]; Subject 1, after 3 weeks of therapy): improved eye opening and definition of the upper eyelid fold and superior palpebral sulcus
improvement of LM ([1]; Subject 1, at the end of treatment (12 weeks)): 25%
Change in LM 4 weeks after discontinuing therapy [1, 4]: Enlargement
Parent impression of change in LM after 12 weeks of therapy [1, 4]: Fair
Adverse effects ([1]; Subject 2, 12 weeks of therapy): None
consistency of the lesion [1, 5]: softer and saggier
reduction in diameter of the lesion [1, 5]: 1 cm
improvement of LMs ([1]; Subject 2, after 8 weeks of treatment): 50%
improvement of LMs ([1]; Subject 2, after 12 weeks of treatment): 75%
appearance of the large LM affecting the back ([1]; Subject 2, at the 12 week visit (FIG. 2, Panel C)): appeared deflated
change of the LMs after stopping the medication ([1]; Subject 2, four weeks after stopping (FIG. 2, Panel D)): mild enlargement
Change in LM 4 weeks after discontinuing therapy ([1]; Subject 2, LM of left forearm): Stable
Parent impression of change in LM after 12 weeks of therapy ([1]; Subject 2, LM of left forearm): Good
Change in LM 4 weeks after discontinuing therapy [1, 6]: Stable
Parent impression of change in LM after 12 weeks of therapy [1, 6]: Good
Change in LM 4 weeks after discontinuing therapy [1, 7]: Enlargement
Parent impression of change in LM after 12 weeks of therapy [1, 7]: Good
tolerability ([1]; two children, 12 weeks, goal dose 1.0 mg/kg/dose TID): tolerated without significant adverse effects
adverse events associated with the medication ([2]; 20 week trial): no adverse events
volume of the lymphatic malformation after 20 weeks ([2]; first subject evaluated, 186 cc before sildenafil): 174 cc
decrease of the volume of the lymphatic malformation ([2]; first subject evaluated, 186 cc to 174 cc): 6.45%
volume of the lymphatic malformation after 20 weeks ([2]; second subject evaluated, 46.5 cc before sildenafil): 42.7 cc
decrease of the volume of the lymphatic malformation ([2]; second subject evaluated, 46.5 cc to 42.7 cc): 8.17%
volume of the lymphatic malformation after 20 weeks ([2]; third subject evaluated, 56.246 cc before sildenafil): 51.732 cc
decrease of the volume of the lymphatic malformation ([2]; third subject evaluated, 56.246 cc to 51.732 cc): 8.03%
MRI finding of the malformation after therapy ([3]; cardiac MRI (FIG. 1, Panel B)): minimal residual lymphatic malformation; also recorded: near complete resolution of the malformation
role of sildenafil in the patient's death ([3]; death from respiratory and cardiac failure): not thought to play a role in their death
skin examination of the malformation ([3]; four months after starting sildenafil): thin, bluish plaque and redundant tissue
change in size of the malformation ([3]; sildenafil, 0.5 titrated to 0.75 mg/kg/dose TID): gradually decreased in size
